Where a name gives a salt, the structure may show the parent alone.
Assays:
[1] = test system: Chloroform-Induced Arrhythmia; assay: Activity on chloroform-induced arrhythmia; assay type: in vivo, ICR-strain mice; details: 100 mg/kg orally; for Antiarrhythmic activity: Rate of onset of VF / Antiarrhythmic activity: Rate of onset of VT: 10 mice per group; for Antiarrhythmic activity: Rate of onset of VF: ventricular fibrillation after chloroform vapor; for Antiarrhythmic activity: Rate of onset of VT: ventricular tachycardia after chloroform vapor; for Antiarrhythmic activity: Duration of activity: relative to the duration time of Lidocaine (+)
Description: Activity on Chloroform-Induced Arrhythmia:-ICR-strain mice having a body weight of 20 to 30 g (10 per group) were used, and the test compound was administered orally in a dose of 100 mg/kg. The mice were put in a 1-liter beaker, and observed for 20 minutes for their symptoms or conditions. Then, they were placed in a vessel saturated with a vapor of chloroform, and the time which elapsed until the animals ceased to breathe was measured. After the stopping of the breathing, the mice were taken out from the vessel and their cardiograms were taken. The rates of onset of ventricular tachycardia (VT) and ventricular fibrillation (VF) and their conditions were observed. The duration of activity was determined by using as a standard the time during which the mice were put in the chloroform- saturated vessel. […] Lidocaine was used as a comparative drug.

blood pressure = assay: Hypotensive action (average blood pressure via carotid cannula, conscious animals); assay type: in vivo, Mice
Description: Hypotensive action:- • Mice having a body weight of about 30 g (5 per group) were used. Under anaesthesia with pentobarbital, the carotid was […] from each animal. A cannula was inserted into the animal and connected to a pressure transducer. A tracheal cannula was applied, and the animal was fixed on its back. After the animals awoke from anesthesia, their average blood pressures were measured by the pressure transducer.
The drug was orally administered in a dose of 30 mg/kg, and changes in the blood pressure were measured. Physiological saline was administered to a control group.
The drug used in Test Example 2 was the compound prepared in Example 6.

Row | SMILES | Antiarrhythmic activity: Rate of onset of VF [1] | Antiarrhythmic activity: Rate of onset of VT [1] | Antiarrhythmic activity: Duration of activity [1] | Average blood pressure (blood pressure; 30 mg/kg orally, 10 minutes after the administration) | Average blood pressure (blood pressure; 30 mg/kg orally, 30 minutes after the administration) | Average blood pressure (blood pressure; 30 mg/kg orally, 60 minutes after the administration) | Average blood pressure (blood pressure; 30 mg/kg orally, 120 minutes after the administration) | Average blood pressure (blood pressure; before administration, 5 mice per group) | Condition ([1]; symptoms observed for 20 minutes, indicated when the same tendency was seen in all subjects)
1 | CC(N)C(=O)Nc1cc(OCCO[N+](=O)[O-])ccc1F (stereo not drawn) [Example 24, 2-Amino-2'-fluoro-5'-(2-nitroxyethoxy)propionanilide] | 0/10 | 2/10 | + |  |  |  |  |  | 
2 | Cc1cc(OCCO[N+](=O)[O-])cc(C)c1NC(=O)C(C)N (stereo not drawn) [Example 6, 2-Amino-2',6'-dimethyl-4'-(2-nitroxyethoxy)-propionanilide·hydrochloride] | 0/10 | 1/10 | ++ | 73.3 ±8.5 (*) mmHg | 76.4 ±7.8 (*) mmHg | 77.4 ±8.1 (*) mmHg | 80.3 ±8.0 (**) mmHg | 86.3 ±6.8 mmHg | 
3 | COc1ccc(OCCO[N+](=O)[O-])cc1OCC(C)N (stereo not drawn) [Example 4, 1-[2-Methoxy-5-(2-nitroxyethoxy)phenoxy]-2-propanamine.maleate] | 0/10 | 4/10 | ++ |  |  |  |  |  | 
4 | COc1ccc(OCC(F)(F)F)cc1NC(=O)CC(C)N (stereo not drawn) [Example 3, 3-Amino-2'-methoxy-5'-(2,2,2-trifluoroethoxy)-butyranilide-hemifumarate] | 0/10 | 2/10 | +++ |  |  |  |  |  | 
5 | Cc1ccc(OCC(F)(F)F)cc1NC(=O)C(C)N (stereo not drawn) [Example 38, 2-Amino-2'-methyl-5'-(2,2,2-trifluoroethoxy)-propionanilide] | 2/10 | 5/10 | + |  |  |  |  |  | 
6 | Cc1ccc(OCCO[N+](=O)[O-])cc1NC(=O)CC(C)N (stereo not drawn) [Example 22, 3-Amino-2'-methyl-5'-(2-nitroxyethoxy)butyr.- anilide-hydrochloride] | 0/10 | 0/10 | ++ |  |  |  |  |  | 
7 | Cc1ccc(OCC(F)(F)F)cc1NC(=O)CC(C)N (stereo not drawn) [Example 40, 3-Amino-2'-methyl-5'-(2,2,2-trifluoroethoxy)-butyranilide·hydrochloride] | 0/10 | 0/10 | +++ |  |  |  |  |  | 
8 | CCN(CC)CC(=O)Nc1c(C)cccc1C [Lidocaine, reference compound] | 2/10 | 0/10 | + |  |  |  |  |  | Weak sedation
9 | Cc1cc(OCC(F)(F)F)cc(C)c1NC(=O)C(C)N (stereo not drawn) [Example 41, 2-Amino-2',6^1-dimethyl-4^1-(2,2,2-trifluoroethoxy)propionanilide·hydrochloride] | 1/10 | 0/10 | +++ |  |  |  |  |  | 

— patent EP0133259A2, “Aminoalkyl-substituted benzene derivatives, process for production thereof, and pharmaceutical composition thereof” (KOWA COMPANY, LTD., priority 1983, dated 1985)
